ChEMBL document CHEMBL1149721, “New Alkaloids from Haplophyllum tuberculatum” (J Nat Prod, 1992)
Activity calls are given as the source filed them. The calls are words filed in the database; no cut-off is given here.

What follows are compounds tested on Staphylococcus aureus (assay: Antimicrobial activity against Staphylococcus aureus at 100 ug/ml).
Assay type: functional, organism-based

Compound	Activity
CC(=O)OC(C)(C)[C@@H]1CC[C@](C)([C@H](O)COc2ccc(CCNC(=O)c3ccccc3)cc2)O1	inactive
COc1c2ccoc2nc2c(CC=C(C)C)c(O)ccc12	inactive
CC(=O)O[C@@H](CC[C@]1(C)O[C@@H]1COc1ccc(CCNC(=O)C=C(C)C)cc1)C(C)(C)OC(C)=O	inactive
CC(=O)O[C@@H](CC[C@]1(C)O[C@@H]1COc1ccc(CCNC(=O)c2ccccc2)cc1)C(C)(C)OC(C)=O	inactive
CC(=O)O[C@H](COc1ccc(CCNC(=O)c2ccccc2)cc1)[C@@]1(C)CC[C@@H](C(C)(C)OC(C)=O)O1	inactive
